Test: in vitro
Conditions: human, hek293t cells
Method: Mammalian cytotoxicity measurement was performed using Cell Titer-Glo 2.0 Cell Viability Assay (Promega, G9243) according to the manufacturer protocol. In brief, mammalian cells were seeded into 384-well white plates (Greiner, 781080) and incubated at 37°C for one day. Compounds from the Cys-Library were dispensed into the assay plate using epMotion 96. The plates were then incubated at 37°C for two days. An equal volume of Cell Titer-Glo 2.0 reagent was added into each well of the assay plate using epMotion 96 and incubated at 22°C for 10 min, followed by luminescence measurement using a Cytation 5 plate reader (BioTek).

Row | Structure (SMILES) | viability at 48 h, 25 µM
1 | C=CC(=O)N1CCC(C(=O)Oc2ccc(NC(C)=O)cc2)CC1 [3-M16, 4-acetamidophenyl 1-(prop-2-enoyl)piperidine-4-carboxylate] | 93.3%
2 | C=CC(=O)N(CC)CC(=O)Nc1ccc2c(c1)nc1n2CCCCC1 [3-M19, N-[({1,8-diazatricyclo[7.5.0.0,2,7]tetradeca-2,4,6,8-tetraen-5-yl}carbamoyl)methyl]-N-ethylprop-2-enamide] | 35.8%
3 | COc1ccc(C=C(C#N)C(=O)Nc2ccc(C)cc2)cc1 [9-A19, 2-cyano-3-(4-methoxyphenyl)-N-(4-methylphenyl)prop-2-enamide] | 103%
4 | CC(Cl)C(=O)N1CCCC(c2nc(-c3cccc(F)c3)no2)C1 (stereo not drawn) [6-N21, 2-chloro-1-{3-[3-(3-fluorophenyl)-1,2,4-oxadiazol-5-yl]piperidin-1-yl}propan-1-one] | 90.2%
5 | O=C(CCl)NCc1ccc(NC(=O)C2CC2)cc1 [6-E20, N-{4-[(2-chloroacetamido)methyl]phenyl}cyclopropanecarboxamide] | 2.09%
6 | CC(Cl)C(=O)N1CCc2sccc2C1c1cccs1 (stereo not drawn) [7-K07, 2-chloro-1-[4-(thiophen-2-yl)-4H,5H,6H,7H-thieno[3,2-c]pyridin-5-yl]propan-1-one] | 87.1%
7 | CC(Cl)C(=O)N1CCN(C(=O)c2cccc(OC(F)F)c2)CC1 (stereo not drawn) [5-F17, 2-chloro-1-{4-[3-(difluoromethoxy)benzoyl]piperazin-1-yl}propan-1-one] | 106%
8 | Cc1ccc(NC(=O)C(C#N)=Cc2ccccc2OC(F)F)c(C)c1 [9-K17, 2-cyano-3-[2-(difluoromethoxy)phenyl]-N-(2,4-dimethylphenyl)prop-2-enamide] | 94.9%
9 | CC(Cl)C(=O)N1CCC(N(CC(F)(F)F)S(C)(=O)=O)CC1 (stereo not drawn) [7-C07, N-[1-(2-chloropropanoyl)piperidin-4-yl]-N-(2,2,2-trifluoroethyl)methanesulfonamide] | 94.8%
10 | O=C(CCl)NCC1(c2ccccc2)CCOCC1 [6-I07, 2-chloro-N-[(4-phenyloxan-4-yl)methyl]acetamide] | 89.3%
11 | CCOC(=O)c1c(NC(=O)C(C)Cl)sc2c1CCC(C)C2 (stereo not drawn) [5-D04, ethyl 2-(2-chloropropanamido)-6-methyl-4,5,6,7-tetrahydro-1-benzothiophene-3-carboxylate] | 90.9%
12 | CC(c1ccc(S(N)(=O)=O)cc1)N(C)C(=O)CCl (stereo not drawn) [7-H12, 2-chloro-N-methyl-N-[1-(4-sulfamoylphenyl)ethyl]acetamide] | 0.618%
13 | O=C(CCl)Nc1nnc(-c2ccccc2Cl)s1 [6-K17, 2-chloro-N-[5-(2-chlorophenyl)-1,3,4-thiadiazol-2-yl]acetamide] | 0.539%
14 | COc1cccc(C=C(C#N)C(=O)Nc2ccccc2C(=O)O)c1 [9-G08, 2-[2-cyano-3-(3-methoxyphenyl)prop-2-enamido]benzoic acid] | 102%
15 | N#CC(=Cc1ccco1)C(=O)Nc1cccc(Cn2cccn2)c1 [8-I20, 2-cyano-3-(furan-2-yl)-N-{3-[(1H-pyrazol-1-yl)methyl]phenyl}prop-2-enamide] | 82.1%
16 | Cc1noc(C)c1S(=O)(=O)N1CCCN(C(=O)C(C)Cl)CC1 (stereo not drawn) [7-O11, 2-chloro-1-{4-[(3,5-dimethyl-1,2-oxazol-4-yl)sulfonyl]-1,4-diazepan-1-yl}propan-1-one] | 89.5%
17 | C=CC(=O)NCC1CS(=O)(=O)c2ccccc21 (stereo not drawn) [3-J15, N-[(1,1-dioxo-2,3-dihydro-1lambda6-benzothiophen-3-yl)methyl]prop-2-enamide] | 81.2%
18 | CC(Cl)C(=O)N1CCCC(CNC(=O)Nc2ccc(F)cc2)C1 (stereo not drawn) [6-J22, 3-{[1-(2-chloropropanoyl)piperidin-3-yl]methyl}-1-(4-fluorophenyl)urea] | 105%
19 | Cc1ccc(C=C(C#N)C(=O)Nc2nccs2)s1 [8-P13, 2-cyano-3-(5-methylthiophen-2-yl)-N-(1,3-thiazol-2-yl)prop-2-enamide] | 109%
20 | C=CC(=O)N1CCC(C(=O)N2CCc3ccc([N+](=O)[O-])cc32)CC1 [1-C06, 1-[4-(6-nitro-2,3-dihydro-1H-indole-1-carbonyl)piperidin-1-yl]prop-2-en-1-one] | 49.9%
21 | C=CC(=O)N1CCC(C(=O)NCc2ccc(Cl)cc2Cl)CC1 [1-E20, N-[(2,4-dichlorophenyl)methyl]-1-(prop-2-enoyl)piperidine-4-carboxamide] | 95.8%
22 | COc1ccc(C=C(C#N)C(=O)Nc2cccc([N+](=O)[O-])c2)cc1 [8-I03, 2-cyano-3-(4-methoxyphenyl)-N-(3-nitrophenyl)prop-2-enamide] | 105%
23 | C=CC(=O)NCc1ccsc1S(N)(=O)=O [2-J15, N-[(2-sulfamoylthiophen-3-yl)methyl]prop-2-enamide] | 53.1%
24 | O=C(CCl)N1c2ccccc2Sc2ccc(Cl)cc21 [4-N07, 2-chloro-1-(2-chloro-10H-phenothiazin-10-yl)ethan-1-one] | 122%
25 | C[C@H]1CN(C(=O)CCl)CCN1C(=O)c1cscn1 [5-L05, 2-chloro-1-[(3S)-3-methyl-4-(1,3-thiazole-4-carbonyl)piperazin-1-yl]ethan-1-one] | 2.69%
26 | O=C(CCl)N1CCCCC1Cn1ccnn1 (stereo not drawn) [5-E08, 2-chloro-1-{2-[(1H-1,2,3-triazol-1-yl)methyl]piperidin-1-yl}ethan-1-one] | 28%

Row | Structure (SMILES) | viability at 48 h, 25 µM
27 | CNS(=O)(=O)c1cc(NC(=O)CCl)ccc1C [6-M07, 2-chloro-N-[4-methyl-3-(methylsulfamoyl)phenyl]acetamide] | 0.859%
28 | CCOc1ccc(C(=O)CCl)cc1 [10-F12, 2-chloro-1-(4-ethoxyphenyl)ethan-1-one] | 1.95%
29 | O=C(CCl)Nc1cc(S(=O)(=O)N2CCCC2)ccc1Cl [6-G14, 2-chloro-N-[2-chloro-5-(pyrrolidine-1-sulfonyl)phenyl]acetamide] | 1.44%
30 | Cc1cc(=O)[nH]c(-c2cccc(NC(=O)C(C#N)=Cc3ccco3)c2)n1 [8-B10, 2-cyano-3-(furan-2-yl)-N-[3-(4-methyl-6-oxo-1,6-dihydropyrimidin-2-yl)phenyl]prop-2-enamide] | 57.8%
31 | O=C(CCl)C1(F)CCCCC1 [10-K19, 2-chloro-1-(1-fluorocyclohexyl)ethan-1-one] | 97.5%
32 | CC(Cl)C(=O)Nc1nc(-c2ccccc2)cs1 (stereo not drawn) [6-L10, 2-chloro-N-(4-phenyl-1,3-thiazol-2-yl)propanamide] | 101%
33 | CN(CCC1CCCCC1)C(=O)CCl [5-A06, 2-chloro-N-(2-cyclohexylethyl)-N-methylacetamide] | 0.304%
34 | C=CC(=O)NCC1(C)CCC(C)(C)CC1 [1-F22, N-[(1,4,4-trimethylcyclohexyl)methyl]prop-2-enamide] | 83.2%
35 | C=CC(=O)N1CCC(c2ncc(C(=O)O)o2)CC1 [2-G19, 2-[1-(prop-2-enoyl)piperidin-4-yl]-1,3-oxazole-5-carboxylic acid] | 101%
36 | C=CC(=O)Nc1ccc(-n2ccccc2=O)cc1F [3-J16, N-[2-fluoro-4-(2-oxo-1,2-dihydropyridin-1-yl)phenyl]prop-2-enamide] | 101%
37 | CC(NC(=O)CCl)C(=O)Nc1ccc(Cl)cc1 (stereo not drawn) [5-G11, 2-(2-chloroacetamido)-N-(4-chlorophenyl)propanamide] | 1.06%
38 | CC(=Cc1ccccc1)C=C(C#N)C(=O)NC1CC1 [9-F12, 2-cyano-N-cyclopropyl-4-methyl-5-phenylpenta-2,4-dienamide] | 92.3%
39 | COc1ccc(NC(=O)CCl)c([N+](=O)[O-])c1 [4-I21, 2-chloro-N-(4-methoxy-2-nitrophenyl)acetamide] | 35.6%
40 | CC(NC(=O)CCl)c1cn(-c2ccccc2)nn1 (stereo not drawn) [5-O06, 2-chloro-N-[1-(1-phenyl-1H-1,2,3-triazol-4-yl)ethyl]acetamide] | 4.63%
41 | CC(Cl)C(=O)N(C)C1CCS(=O)(=O)CC1 (stereo not drawn) [6-J21, 2-chloro-N-(1,1-dioxo-1lambda6-thian-4-yl)-N-methylpropanamide] | 99.1%
42 | C=CC(=O)NCC1CCCC1N1CCCS1(=O)=O (stereo not drawn) [3-L13, N-{[2-(1,1-dioxo-1lambda6,2-thiazolidin-2-yl)cyclopentyl]methyl}prop-2-enamide] | 78.9%
43 | CC(Cl)C(=O)N1CCN(CCOc2ccc3c(c2)CCC3)CC1 (stereo not drawn) [6-H17, 2-chloro-1-{4-[2-(2,3-dihydro-1H-inden-5-yloxy)ethyl]piperazin-1-yl}propan-1-one] | 3.42%
44 | C=CC(=O)Nc1cc2c(cc1Sc1ccccc1)OCCO2 [1-M13, N-[7-(phenylsulfanyl)-2,3-dihydro-1,4-benzodioxin-6-yl]prop-2-enamide] | 82.4%
45 | O=C(CCl)NCCCC(=O)N1CCCC1 [7-N08, 2-chloro-N-[4-oxo-4-(pyrrolidin-1-yl)butyl]acetamide] | 93.6%
46 | CCN(C(=O)CCl)c1c(N)n(Cc2ccccc2)c(=O)[nH]c1=O [4-P10, N-(6-amino-1-benzyl-2,4-dioxo-1,2,3,4-tetrahydropyrimidin-5-yl)-2-chloro-N-ethylacetamide] | 65.4%
47 | C=CC(=O)NCc1ccc(-c2noc(C)n2)cc1 [3-P22, N-{[4-(5-methyl-1,2,4-oxadiazol-3-yl)phenyl]methyl}prop-2-enamide] | 94.1%
48 | CC(Cl)C(=O)N1CCCC1CC(=O)c1cnn(C)c1 (stereo not drawn) [6-D16, 2-chloro-1-{2-[2-(1-methyl-1H-pyrazol-4-yl)-2-oxoethyl]pyrrolidin-1-yl}propan-1-one] | 116%
49 | C=CC(=O)NC1CCOc2c(F)cccc21 (stereo not drawn) [1-D05, N-(8-fluoro-3,4-dihydro-2H-1-benzopyran-4-yl)prop-2-enamide] | 99.1%
50 | C=CC(=O)Nc1nc2cc(C(F)(F)F)ccc2n1Cc1ccco1 [1-G11, N-{1-[(furan-2-yl)methyl]-5-(trifluoromethyl)-1H-1,3-benzodiazol-2-yl}prop-2-enamide] | 72.5%
51 | O=C(CCl)Cc1cccc(F)c1 [10-C11, 1-chloro-3-(3-fluorophenyl)propan-2-one] | 38.4%

From publication PMC11995724, “Antibiotic target discovery by integrated phenotypic and activity-based profiling of electrophilic fragments” (Cell chemical biology, 2025)
